Test results taken from ChEMBL document CHEMBL1201862, “PubChem BioAssay data set” (2004).
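The compound was tested at five concentrations on cells cultured in 96-well plates, with a 48-hour exposure period. Abbreviation: GI50, concentration required for 50% inhibition of growth.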 The source made the active and inactive calls. Cut-off read from the data, not from the text of the source: active = GI50 up to about 1.1 µM and inactive = higher.

Legend:
Experiment in all cases: NCI anticancer screen, dose series, 48 h
UO-31 = system: UO-31
NCI-H226 = system: NCI-H226
SW-620 = system: SW-620
EKVX = system: EKVX
K562 = system: K562
LOX IMVI = system: LOX IMVI
RPMI-8226 = system: RPMI-8226
SK-MEL-28 = system: SK-MEL-28
KM12 = system: KM12
OVCAR-5 = system: OVCAR-5
KM-20L2 = system: KM-20L2
SK-MEL-2 = system: SK-MEL-2
MCF7 = system: MCF7
HT-29 = system: HT-29
XF498 = system: XF498
A498 = system: A498
SNB-19 = system: SNB-19
COLO 205 = system: COLO 205
SNB-78 = system: SNB-78
SF-295 = system: SF-295
DLD-1 = system: DLD-1
SNB-75 = system: SNB-75
HCC 2998 = system: HCC 2998
M19-MEL = system: M19-MEL
SN12C = system: SN12C
CCRF-CEM = system: CCRF-CEM
UACC-62 = system: UACC-62
NCI/ADR-RES = system: NCI/ADR-RES
HCT-116 = system: HCT-116
HL-60 = system: HL-60
HCT-15 = system: HCT-15
UACC-257 = system: UACC-257
HOP-92 = system: HOP-92
OVCAR-8 = system: OVCAR-8
U-251 = system: U-251
IGROV-1 = system: IGROV-1
TK-10 = system: TK-10
HOP-62 = system: HOP-62
Malme-3M = system: Malme-3M
786-0 = system: 786-0
RXF 393 = system: RXF 393
OVCAR-3 = system: OVCAR-3
M14 = system: M14
SK-MEL-5 = system: SK-MEL-5
NCI-H460 = system: NCI-H460
CAKI-1 = system: CAKI-1
DMS-114 = system: DMS-114
LXFL 529 = system: LXFL 529
SR = system: SR
OVCAR-4 = system: OVCAR-4
A549 = system: A549
ACHN = system: ACHN
SF-539 = system: SF-539
DMS-273 = system: DMS-273
MOLT-4 = system: MOLT-4
SK-OV-3 = system: SK-OV-3
NCI-H522 = system: NCI-H522
NCI-H23 = system: NCI-H23
SF-268 = system: SF-268

For `CC1OC(O[C@@H]2C=C3CC[C@@H]4[C@H](CC[C@]5(C)[C@@H](c6ccc(=O)oc6)CC[C@]45O)[C@@]3(C)CC2)C(O)C(OC2OC(CO)C(O)C(O)C2O)C1O` (stereo not given in full), the GI50 (UO-31) was 0.025 µM (active), the GI50 (NCI-H226) was 0.0255 µM (active) and the GI50 (SW-620) was 0.025 µM (active). For the same compound, the GI50 (EKVX) was 0.025 µM (active), the GI50 (K562) was 0.025 µM (active) and the GI50 (LOX IMVI) was 0.025 µM (active). For the same compound, the GI50 (RPMI-8226) was 0.025 µM (active), the GI50 (SK-MEL-28) was 0.025 µM (active) and the GI50 (KM12) was 0.025 µM (active). For the same compound, the GI50 (OVCAR-5) was 0.0275 µM (active), the GI50 (KM-20L2) was 0.025 µM (active) and the GI50 (SK-MEL-2) was 0.025 µM (active). The GI50 (MCF7) was 0.025 µM (active), the GI50 (HT-29) was 0.0281 µM (active) and the GI50 (XF498) was 0.025 µM (active). For the same compound, the GI50 (A498) was 0.025 µM (active), the GI50 (SNB-19) was 0.025 µM (active) and the GI50 (COLO 205) was 0.025 µM (active). For the same compound, the GI50 (SNB-78) was 0.025 µM (active), the GI50 (SF-295) was 0.025 µM (active) and the GI50 (DLD-1) was 0.025 µM (active). For the same compound, the GI50 (SNB-75) was 0.025 µM (active), the GI50 (HCC 2998) was 0.025 µM (active) and the GI50 (M19-MEL) was 0.025 µM (active). The GI50 (SN12C) was 0.025 µM (active), the GI50 (CCRF-CEM) was 0.025 µM (active) and the GI50 (UACC-62) was 0.025 µM (active). For the same compound, the GI50 (NCI/ADR-RES) was 0.025 µM (active), the GI50 (HCT-116) was 0.025 µM (active) and the GI50 (HL-60) was 0.025 µM (active). For the same compound, the GI50 (HCT-15) was 0.025 µM, the GI50 (UACC-257) was 0.025 µM (active) and the GI50 (HOP-92) was 0.025 µM (active). The GI50 (OVCAR-8) was 0.025 µM (active), the GI50 (U-251) was 0.025 µM (active) and the GI50 (IGROV-1) was 0.025 µM (active).

For `CC(/C(=N\Nc1ccccc1)c1ccc(O)cc1)C1C(=O)Oc2ccccc21` (stereo not given), the GI50 (UO-31) was > 100 µM (inactive), the GI50 (TK-10) was > 100 µM (inactive) and the GI50 (HOP-62) was > 100 µM (inactive). For the same compound, the GI50 (SW-620) was > 100 µM (inactive), the GI50 (EKVX) was > 100 µM (inactive) and the GI50 (K562) was > 100 µM (inactive). For the same compound, the GI50 (LOX IMVI) was > 100 µM (inactive), the GI50 (RPMI-8226) was > 100 µM (inactive) and the GI50 (KM12) was > 100 µM (inactive). For the same compound, the GI50 (KM-20L2) was > 100 µM (inactive), the GI50 (Malme-3M) was > 100 µM (inactive) and the GI50 (SK-MEL-2) was > 100 µM (inactive). For the same compound, the GI50 (786-0) was > 100 µM (inactive), the GI50 (HT-29) was > 100 µM (inactive) and the GI50 (RXF 393) was > 100 µM (inactive). For the same compound, the GI50 (OVCAR-3) was > 100 µM (inactive), the GI50 (M14) was > 100 µM (inactive) and the GI50 (SK-MEL-5) was > 100 µM (inactive). The GI50 (NCI-H460) was > 100 µM (inactive), the GI50 (A498) was > 100 µM (inactive) and the GI50 (SNB-19) was > 100 µM (inactive). For the same compound, the GI50 (COLO 205) was > 100 µM (inactive), the GI50 (SF-295) was > 100 µM (inactive) and the GI50 (DLD-1) was > 100 µM (inactive). For the same compound, the GI50 (SNB-75) was 55.7 µM (inactive), the GI50 (CAKI-1) was > 100 µM (inactive) and the GI50 (DMS-114) was > 100 µM (inactive). The GI50 (LXFL 529) was > 100 µM (inactive), the GI50 (SR) was > 100 µM (inactive) and the GI50 (HCC 2998) was > 100 µM (inactive). For the same compound, the GI50 (M19-MEL) was > 100 µM (inactive), the GI50 (OVCAR-4) was > 100 µM (inactive) and the GI50 (SN12C) was > 100 µM (inactive). The GI50 (CCRF-CEM) was > 100 µM (inactive), the GI50 (UACC-62) was > 100 µM (inactive) and the GI50 (A549) was > 100 µM (inactive). For the same compound, the GI50 (HCT-116) was > 100 µM (inactive), the GI50 (HL-60) was > 100 µM (inactive) and the GI50 (HCT-15) was greater than 100 µM. For the same compound, the GI50 (UACC-257) was > 100 µM (inactive), the GI50 (ACHN) was > 100 µM (inactive) and the GI50 (SF-539) was > 100 µM (inactive). The GI50 (OVCAR-8) was > 100 µM (inactive), the GI50 (U-251) was > 100 µM (inactive) and the GI50 (DMS-273) was > 100 µM (inactive). For the same compound, the GI50 (MOLT-4) was > 100 µM (inactive) and the GI50 (IGROV-1) was > 100 µM (inactive).

For `O=C(O)c1ccc(NC(=O)C2C(=O)C(=O)N(c3ccc(C(=O)O)cc3)C2=O)cc1` (stereo not given), the GI50 (UO-31) was > 100 µM (inactive), the GI50 (SK-OV-3) was > 100 µM (inactive) and the GI50 (TK-10) was > 100 µM (inactive). For the same compound, the GI50 (NCI-H226) was > 100 µM (inactive), the GI50 (HOP-62) was > 100 µM (inactive) and the GI50 (SW-620) was > 100 µM (inactive). For the same compound, the GI50 (EKVX) was > 100 µM (inactive), the GI50 (K562) was > 100 µM (inactive) and the GI50 (LOX IMVI) was > 100 µM (inactive). The GI50 (RPMI-8226) was > 100 µM (inactive), the GI50 (SK-MEL-28) was > 100 µM (inactive) and the GI50 (KM12) was > 100 µM (inactive). For the same compound, the GI50 (OVCAR-5) was > 100 µM (inactive), the GI50 (KM-20L2) was > 100 µM (inactive) and the GI50 (Malme-3M) was > 100 µM (inactive). The GI50 (SK-MEL-2) was > 100 µM (inactive), the GI50 (786-0) was > 100 µM (inactive) and the GI50 (HT-29) was > 100 µM (inactive). For the same compound, the GI50 (RXF 393) was > 100 µM (inactive), the GI50 (NCI-H522) was > 100 µM (inactive) and the GI50 (OVCAR-3) was > 100 µM (inactive). For the same compound, the GI50 (XF498) was > 100 µM (inactive), the GI50 (NCI-H460) was > 100 µM (inactive) and the GI50 (A498) was > 100 µM (inactive). For the same compound, the GI50 (SNB-19) was > 100 µM (inactive), the GI50 (COLO 205) was > 100 µM (inactive) and the GI50 (SNB-78) was > 100 µM (inactive). The GI50 (SF-295) was > 100 µM (inactive), the GI50 (DLD-1) was > 100 µM (inactive) and the GI50 (NCI-H23) was > 100 µM (inactive). The GI50 (SF-268) was > 100 µM (inactive), the GI50 (SNB-75) was > 100 µM (inactive) and the GI50 (CAKI-1) was > 100 µM (inactive). The GI50 (HCC 2998) was > 100 µM (inactive), the GI50 (M19-MEL) was > 100 µM (inactive) and the GI50 (OVCAR-4) was > 100 µM (inactive). The GI50 (SN12C) was > 100 µM (inactive), the GI50 (CCRF-CEM) was > 100 µM (inactive) and the GI50 (UACC-62) was > 100 µM (inactive). The GI50 (A549) was > 100 µM (inactive), the GI50 (HCT-116) was > 100 µM (inactive) and the GI50 (HL-60) was > 100 µM (inactive). The GI50 (HCT-15) was greater than 100 µM, the GI50 (UACC-257) was > 100 µM (inactive) and the GI50 (ACHN) was > 100 µM (inactive). The GI50 (SF-539) was > 100 µM (inactive), the GI50 (HOP-92) was > 100 µM (inactive) and the GI50 (OVCAR-8) was > 100 µM (inactive). For the same compound, the GI50 (U-251) was > 100 µM (inactive), the GI50 (DMS-273) was > 100 µM (inactive) and the GI50 (MOLT-4) was > 100 µM (inactive). For the same compound, the GI50 (IGROV-1) was > 100 µM (inactive).
